Key:
[1] = Stability studies in human serum; assay type: in vitro ADME; conditions: 37 °C, 24 h; for Intact peptide (%): n = 3, 1440 min; for SiOH-containing analog (%): n = 3, analog with hydrolyzed SiFA moiety
Description: In vitro stability studies in human serum after incubation at 37 °C for 24 h were performed as described in the Supplemental Material.
Stability Studies in Human Serum. The 177Lu- as well as 67Ga-labeled CCK-2R ligands (1 nmol,
approx. 5 MBq) were incubated for 24 h in human serum (200 μL) at 37 °C. After incubation, ice-cold
EtOH (125 μL) and MeCN (375 μL) were added and the suspension was centrifuged for 5 min at
5000 rpm. Then, the supernatant was transferred into new vials and centrifuged for another 5 min at
5000 rpm. After separating the precipitate from the solution, the stability of the ligands was determined

[2] = Lipophilicity (logD7.4), n-octanol/PBS pH 7.4; assay type: physicochemical
Description: Cell-based experiments and determination of lipophilicity (logD7.4) were performed as previously published. A detailed description of the in vitro experiments is provided in the Supplementary Materials.
Cell Culture. CCK-2R-expressing rat pancreatic cancer cells AR42J (CLS GmbH, Eppelheim, Germany) were cultivated in monolayers in CELLSTAR® cell culture flasks acquired from Greiner Bio-One GmbH (Frickenhausen, Germany) at 37°C in a humidified atmosphere (5% CO2) using a HERAcell 150i-Incubator (Thermo Fisher Scientific Inc., Waltham, United States). The nutrient medium RPMI 1640 medium, supplemented with 5 mM L-Gln 5 mL non-essential amino acids (100×) and 10% FCS, was used. Furthermore, a Dulbecco’s PBS solution with 0.1% EDTA (v/v) was applied to detach the cells for cell passaging. The detached cells were counted using a Neubauer hemocytometer (Paul Marienfeld, Lauda-Königshofen, Germany). In addition, all operations under sterile conditions were accomplished using a MSC-Advantage safety workbench (Thermo Fisher Scientific Inc., Waltham, United States).
Determination of IC50. AR42J cells (2.0 × 10^5 cells/well) were seeded into 24-well plates 24 ± 2 h prior to testing using 1 mL of nutrient medium (RPMI 1640, 5 mM L-Gln, 5 mL non-essential amino acids (100×), 10% FCS). Cells were incubated at 37°C in a humidified atmosphere (5% CO2).
After the removal of the medium, each well was washed with 500 μL PBS. For the cell-based assay, 200 μL of the nutrient medium (+5% BSA), [ 177Lu]Lu-DOTA-PP-F11N (25 μL, 0.3 pmol) as a radiolabeled reference and 25 μL of the peptide of interest in increasing concentrations (10 −10 to 10−4 M) were added to the cells in triplicate. Thereafter, the assay was incubated for 3 h at 37°C and the supernatant was collected. The cells were washed with 300 μL PBS and the collected supernatant fractions were unified.
After lysis of the cells with NaOH (300 μL, 1 N) for 15 min, the respective wells were washed with NaOH (300 μ L, 1 N) and both fractions were unified. The radioactivity of both the supernatant and the lysed fractions were quantified using a γ-counter (PerkinElmer Inc., Waltham, United States). The obtained data were evaluated via the GraphPad PRISM software (GraphPad Software Inc., La Jolla, United States), which calculates the half-maximal inhibitory concentration (IC50) of the peptides.
Internalization Studies. For the determination of the internalization kinetics of the various peptides, AR42J cells (3.0 × 10^5 cells/well) were seeded into polylysine-coated 24-well plates, adding 1 mL of nutrient medium. Afterwards, the cells were incubated for 24 ± 2 h at 37°C in a humidified atmosphere […]
On the day of the experiment, the medium was removed, and each well was washed with nutrient medium (300 μL). Afterwards 200 μL of nutrient medium, 25 μL of the 177Lu-labeled peptide (0.3 pmol, n = 6) and either 25 μL of nutrient medium for internalization studies ( n = 3) or 25 μL of [natLu]Lu-DOTA-PP-F11N (10 μmol) for competition studies ( n = 3) were added. Thereafter, the assay was incubated for various time points (1, 2, 4 and 6 h) at 37°C in a humidified atmosphere (5% CO2). After incubation, the cells were put on ice for at least 1 min to stop internalization kinetics and the supernatant was collected. Then, the cells were washed with an ice-cold nutrient medium (300 μL) and both fractions were unified. […] The radioactivity of the supernatant, the acid wash and the lysed fractions were quantified using a γ-counter. […]

[3] = molecular target: Human serum albumin (HSA) (Homo sapiens, UniProt P02768); experiment: Human serum albumin (HSA) binding, ultracentrifugation method; assay type: in vitro ADME; conditions: HSA 700 µM in PBS, 37 °C, 30 min, n = 6, corrected for unspecific binding
Description: Human serum albumin (HSA) binding was determined in analogy to a previously published ultracentrifugation method. Therefore, the peptides of interest were incubated in a solution of HSA (700 µM in phosphate-buffered saline) at 37 °C for 30 min (n = 6). All values were corrected for unspecific binding.

Sequence of Human serum albumin (HSA) (P02768 25-609): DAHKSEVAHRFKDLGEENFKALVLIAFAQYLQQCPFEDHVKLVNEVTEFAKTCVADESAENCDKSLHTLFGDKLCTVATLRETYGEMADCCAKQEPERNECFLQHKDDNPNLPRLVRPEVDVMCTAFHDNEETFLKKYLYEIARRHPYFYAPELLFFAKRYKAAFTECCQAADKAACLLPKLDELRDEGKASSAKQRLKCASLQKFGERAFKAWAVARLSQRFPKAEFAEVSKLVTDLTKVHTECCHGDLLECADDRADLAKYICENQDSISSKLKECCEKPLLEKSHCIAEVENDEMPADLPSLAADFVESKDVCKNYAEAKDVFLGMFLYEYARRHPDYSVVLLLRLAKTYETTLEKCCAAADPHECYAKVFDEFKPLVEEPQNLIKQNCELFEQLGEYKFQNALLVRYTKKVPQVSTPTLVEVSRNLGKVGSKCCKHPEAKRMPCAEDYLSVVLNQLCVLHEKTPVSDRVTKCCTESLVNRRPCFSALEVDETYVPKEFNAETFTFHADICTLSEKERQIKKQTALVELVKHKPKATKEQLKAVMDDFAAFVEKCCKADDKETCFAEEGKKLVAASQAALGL

| SMILES | Intact peptide (%) [1] [%] | SiOH-containing analog (%) ([1]; listed as [177Lu]Lu-DOTA-rhCCK-16) | logD ([2]; pH 7.4, n-octanol/PBS pH 7.4, read-out: logD7.4) | HSA Binding (%) [3] [%] | SiOH-containing analog (%) [1] [%] | logD7.4 ([2]; n-octanol/PBS pH 7.4) | HSA Binding (%) ([3]; listed as [^177Lu]Lu-DOTA-rhCCK-18) |
| --- | --- | --- | --- | --- | --- | --- | --- |
| CCCC[C@H](NC(=O)[C@H](Cc1c[nH]c2ccccc12)NC(=O)CNC(=O)[C@H](Cc1ccc(O)cc1)NC(=O)[C@H](C)NC(=O)CC[C@@H](NC(=O)CC[C@@H](NC(=O)CC[C@@H](NC(=O)CC[C@@H](NC(=O)CC[C@@H](NC(=O)CC[C@@H](NC(=O)[C@@H](CNC(=O)c1ccc([Si](F)(C(C)(C)C)C(C)(C)C)cc1)NC(=O)CN1CCN(CC(=O)O)CCN(CC(=O)O)CCN(CC(=O)O)CC1)C(=O)O)C(=O)O)C(=O)O)C(=O)O)C(=O)O)C(=O)O)C(=O)N[C@@H](CC(=O)O)C(=O)N[C@@H](Cc1ccccc1)C(N)=O [[^177Lu]Lu-DOTA-rhCCK-16, metal not drawn] | 21.8 ± 0.8 | 69.1 ± 1.0 | -2.7 ± 0.09 | 89.1 | – | – | – |
| CCCC[C@H](NC(=O)[C@H](Cc1c[nH]c2ccccc12)NC(=O)CNC(=O)[C@H](Cc1ccc(O)cc1)NC(=O)[C@H](C)NC(=O)CC[C@@H](NC(=O)CC[C@@H](NC(=O)CC[C@@H](NC(=O)CC[C@@H](NC(=O)CC[C@@H](NC(=O)CC[C@@H](NC(=O)CC[C@@H](NC(=O)CC[C@@H](NC(=O)[C@@H](CNC(=O)c1ccc([Si](F)(C(C)(C)C)C(C)(C)C)cc1)NC(=O)CN1CCN(CC(=O)O)CCN(CC(=O)O)CCN(CC(=O)O)CC1)C(=O)O)C(=O)O)C(=O)O)C(=O)O)C(=O)O)C(=O)O)C(=O)O)C(=O)O)C(=O)N[C@@H](CC(=O)O)C(=O)N[C@@H](Cc1ccccc1)C(N)=O [[^19F]F-[^177Lu]Lu-DOTA-rhCCK-18] [metal not drawn] | 25.3 ± 3.1 | – | – | 62.6 | 67.7 ± 3.1 | −2.69 ± 0.06 | 62.6 |

Reference: paper PMC10054553, “Development of the First ^18F-Labeled Radiohybrid-Based Minigastrin Derivative with High Target Affinity and Tumor Accumulation by Substitution of the Chelating Moiety” (Pharmaceutics, 2023)
